Source: patent publication US10463712B2, “Human catestatin induces gut microbiota dysbiosis” (University of Manitoba, priority 2015, dated 2019)
Where no end group is shown, it is not given here.

Key:
[1] = system: induced colitis; conditions: Rabbi et al. 2014; cited from earlier work
[2] = system: colonic mucosa associated microbiota; test: Colonic mucosa associated microbiota composition by Illumina 16S rRNA sequencing after intrarectal CTS; assay type: in vivo, C57BL/6 mice; conditions: for Mean percentage of sequence in total bacterial population: CTS 1.5 mg/kg/day i.r. 6 days
Experimental: (§1) Male C57BL/6 mice (7-9 weeks old) were purchased from Charles River (Canada) and maintained in the animal care facility at the University of Manitoba. The experimental protocol was approved by the University of Manitoba Animal Ethics Committee (10-073) and the research was conducted according to the Canadian Guidelines for Animal Research. Two groups of 4 and 6 mice were studied, one receiving the vehicle solution and one receiving intra-rectal Infusion of CTS for 6 days.
(§2) Saline (0.9%) was injected in the control group. Mice were anaesthetized using Isoflurane (Abbott, Toronto, Canada).
(§3) Samples were collected 6 days post-treatment induction, after euthanasia under isoflurane (Abbot) anaesthesia. The macroscopic score was determined on the sacrifice day based on stool consistency, rectal prolapse and rectal and colonic bleeding. On the day of sacrifice, a 250 mg fecal sample and a portion of the colon were collected in individual collector tubes from each animal. All samples were preserved at −80° C. before use.
(§4) Colons were opened and 50 mg of scrapings were taken from the inside. Samples were homogenized at room temperature, and genomic DNA was extracted from 250 mg fecal mass using a ZR fecal DNA Kit (Zymo Research Corp., Orange, Calif.). DNA extraction was performed using a Qiagen DNeasy blood & tissue kit (Qiagen corp, Valencia, USA). Both DNA extraction kits have a bead-beating step to lyse microbial cells. To match the concentration requirement for pyrosequencing, DNA quantity was determined using a Beckman DU/800 spectrophotometer (Beckman Coulter, Inc., Fullerton, Calif.). Genomic DNA was normalized to achieve a concentration of 20 ng/μL, and quality-checked by 16S rRNA gene using PCR amplification of 27F (5′-[…]-3′, SEQ ID NO:2) and 342R (5′-[…]-3′, SEQ ID NO:3)^58, 59. Amplicons were verified by agarose gel electrophoresis.
(§5) Library construction and Illumina sequencing were performed as described by Derakhshani et al.^60. Briefly, the […] region of the 16S rRNA gene was targeted for PCR amplification using modified F515/R806 primers^61. A reverse PCR primer was Indexed with 12-base Golay barcodes to allow for sample multiplexing. The PCR reaction for each sample was performed in duplicate and contained 1.0 μl of pre-normalized DNA, 1.0 μl each of forward and reverse primers (10 μM), 12 μl HPLC grade water (Fisher Scientific, ON, Canada) and 10 μl 5 Prime Hot MasterMix® (5 Prime, Inc., Gaithersburg, USA). Reactions consisted of an initial denaturing step at 94° C. for 3 min followed by 35 amplification cycles at 94° C. for 45 sec, 50° C. for 60 sec and 72° C. for 90 sec; this was followed by an extension step at 72° C. for 10 min in an Eppendorf Mastercycler® (Eppendorf, Hamburg, Germany). PCR products were then purified using a ZR-96 DNA Clean-up Kit™ (ZYMO Research, CA, USA) to remove primers, dNTPs and reaction components. The V4 library was then generated by pooling 200 ng of each sample, and quantified using Picogreen dsDNA (Invitrogen, NY, USA). This was followed by multiple dilution steps using pre-chilled hybridization buffer (HT1) (Illumina, CA, USA) to bring the pooled ampilcons to a final concentration of […], and the concentration was measured through optical density using a Qubit® 2.0 Fluorometer (Life technologies, ON, Canada). […] The 150 paired-end sequencing reaction was performed on a MISeq platform (Illumina, CA, USA) at the Gut Microbiome and Large Animal Biosecurity Laboratories, Department of Animal Science, University of Manitoba, Canada.
(§6) Bioinformatics analyses were performed as described by Derakhshani et al.^60. Briefly, the PANDAseq assembler^62 was used to merge overlapping paired-end Illumina fastq files. All the sequences with mismatches or ambiguous calls in the overlapping region were discarded. The output fastq file was then analyzed using downstream computational pipelines in the open source software package QIIME^63.

[3] = system: Staphylococcus aureus, group A Streptococcus, Escherichia coli, Pseudomonas aeruginosa, Candida albicans, Aspergillus niger, A. fumigates, Trichophyton rubrum; conditions: gram-positive and gram-negative bacteria, yeasts, filamentous fungi; cited from earlier work
[4] = system: fecal microbiota; test: Fecal microbiota composition by Illumina 16S rRNA sequencing after intrarectal CTS; assay type: in vivo, C57BL/6 mice; conditions: for Mean percentage of sequence in total bacterial population: CTS 1.5 mg/kg/day i.r. 6 days
Experimental: as §1, §2, §3, §4, §5, §6

[5] = colonic mucosa associated samples
[6] = colonic mucosa associated samples, R^2=0.32, Q^2=0.242
[7] = fecal samples, R^2=0.94, Q^2=0.57

In the case of SSMKLSFRARAYGFRGPGPQL [CTS], the “Severity of induced colitis” value [1] is given as “less severe induced colitis”, the “Impact on Chao1, ACE, Shanon and Simpson indices of α-diversity” value ([2]; colonic mucosa associated bacterial community, vs control) is given as “no significant impact” and the “Effect on Verrucomicrobia” value [2, 5] is given as “lowered”. For the same sequence, the “Impact on relative abundance of bacterial phyla” value [2, 5] was “no significant impact”, the “β-diversity (PERMANOVA): bacterial community vs controls” value [2, 5] was “no significant change” and the “PLS-DA association with CTS treatment: Bacteroidales, Chitinophagaceae, Clostridlaceae, Clostridiales, Coriobacteriaceae, Pseudomonadaceae, Rikenellaceae, Ruminococcaceae, YS2” value [2, 6] was “positive association”. The “PLS-DA association with CTS treatment: genera Bifidobacterium and Stenotrophomonas” value [2, 6] was “positive association”, the “Mean percentage of sequence in total bacterial population” value (shortened to “Mean percentage of sequence”) ([2]; phylum Acidobacteria, colonic mucosa associated samples) was 0.03339% and the “Mean percentage of sequence” value ([2]; phylum Actinobacteria, colonic mucosa associated samples) was 0.0724%. For the same sequence, the “Mean percentage of sequence” value ([2]; phylum Armatimonadetes, colonic mucosa associated samples) was 0.000879%, the “Mean percentage of sequence” value ([2]; phylum Bacteroidetes, colonic mucosa associated samples) was 21.0435% and the “Mean percentage of sequence” value ([2]; phylum Chlamydiae, colonic mucosa associated samples) was 0.00306%. For the same sequence, the “Mean percentage of sequence” value ([2]; phylum Chlorobi, colonic mucosa associated samples) was 0.002098%, the “Mean percentage of sequence” value ([2]; phylum Cyanobacteria, colonic mucosa associated samples) was 0.1752% and the “Mean percentage of sequence” value ([2]; phylum Deferribacteres, colonic mucosa associated samples) was 5.95%. The “Mean percentage of sequence” value ([2]; phylum Fibrobacteres, colonic mucosa associated samples) was 0.01378%, the “Mean percentage of sequence” value ([2]; phylum Firmicutes, colonic mucosa associated samples) was 12.52% and the “Mean percentage of sequence” value ([2]; phylum Lentisphaerae, colonic mucosa associated samples) was 0.00457%. For the same sequence, the “Mean percentage of sequence” value ([2]; phylum OD1, colonic mucosa associated samples) was 0.004988%, the “Mean percentage of sequence” value ([2]; phylum OP3, colonic mucosa associated samples) was 0.001604% and the “Mean percentage of sequence” value ([2]; phylum Planctomycetes, colonic mucosa associated samples) was 0.004664%. For the same sequence, the “Mean percentage of sequence” value ([2]; phylum Proteobacteria, colonic mucosa associated samples) was 59.17%, the “Mean percentage of sequence” value ([2]; phylum Spirochaetes, colonic mucosa associated samples) was 0.08226% and the “Mean percentage of sequence” value ([2]; phylum TM7, colonic mucosa associated samples) was 0.007409%. For the same sequence, the “Mean percentage of sequence” value ([2]; phylum Tenericutes, colonic mucosa associated samples) was 0.3714%, the “Mean percentage of sequence” value ([2]; phylum Unclassified, colonic mucosa associated samples) was 0.2915% and the “Mean percentage of sequence” value ([2]; phylum Verrucomicrobia, colonic mucosa associated samples) was 0.1428%. The “Antimicrobial activity in vitro” value [3] was “effective”, the “E. coli levels in the gut” value ([4]; CTS administration in vivo) was “not affected” and the “S. aureus levels in the gut” value ([4]; CTS administration in vivo) was “not affected”. For the same sequence, the “Impact on Chao1, ACE, Shanon and Simpson indices of α-diversity” value ([4]; fecal bacterial community, vs control) was “no significant impact”, the “Effect on Verrucomicrobia” value ([4]; fecal samples) was “lowered” and the “β-diversity (unweighted UniFrac, PERMANOVA): bacterial community vs controls” value ([4]; fecal samples, P<0.05) was “clustered separately”. For the same sequence, the “PLS-DA association with CTS treatment: Adlercreutzia, Allobaculum, Bacteroidaceae (Family), Clostridia (Class), Ruminococcaceae (Family)” value [4, 7] was “negative association”, the “PLS-DA association with CTS treatment: Alpharoteobacteria (Class), Bacteroidales (Order), RF32 (Order), mitochondria (Family), YS2 (Order)” value [4, 7] was “positive association” and the “PLS-DA association with CTS treatment: genera Prevotella, Bacteroides Ovatus, Bacteroides, Parabacteroides distarosis, Parabacteroides and Dorea” value [4, 7] was “positively associated”. For the same sequence, the “Change of Firmicutes population vs control” value ([4]; feces, P<0.001) was “significantly decreased”, the “Change of relative abundance of Bacteroidetes vs control” value ([4]; feces, P<0.05) was “significantly increased” and the “Prevotella, Bacteroides, and Parabacteroides populations” value ([4]; feces, lower taxonomical level) was “significant increase”. The “Mean percentage of sequence” value ([4]; phylum Actinobacteria, fecal samples) was 0.1877%, the “Mean percentage of sequence” value ([4]; phylum Bacteroidetes, fecal samples) was 74% and the “Mean percentage of sequence” value ([4]; phylum Cyanobacteria, fecal samples) was 0.152%. For the same sequence, the “Mean percentage of sequence” value ([4]; phylum Deferribacteres, fecal samples) was 1.144%, the “Mean percentage of sequence” value ([4]; phylum Fibrobacteres, fecal samples) was 0.000541% and the “Mean percentage of sequence” value ([4]; phylum Firmicutes, fecal samples) was 20.56%. The “Mean percentage of sequence” value ([4]; phylum Proteobacteria, fecal samples) was 2.873%, the “Mean percentage of sequence” value ([4]; phylum TM7, fecal samples) was 0.003098% and the “Mean percentage of sequence” value ([4]; phylum Tenericutes, fecal samples) was 0.4046%. For the same sequence, the “Mean percentage of sequence” value ([4]; phylum Unclassified, fecal samples) was 0.4142% and the “Mean percentage of sequence” value ([4]; phylum Verrucomicrobia, fecal samples) was 0.266%.
